Measurements reported in patent US8952192B2, “Phosphorylated and branched dihydroxy-pentane-dione (DPD) analogs as quorum sensing inhibitors in bacteria” (University of Maryland, College Park, priority 2011, dated 2015).
Read-outs that look alike come from different tables or passages of the source.

Assays:
[1] = system: pre-formed E. coli biofilms (K-12 MG1655); experiment: Effects on pre-formed E. coli biofilms (microfluidic flow cell, COMSTAT, optical density); type: cell-based
Method: (§1) The E. coli biofilms were formed using the strain K-12 MG1655 ATCC(47076). P. aeruginosa biofilms were formed using wild type strain PAO1. For both strains, overnight cultures were diluted to an OD600 of 0.25, introduced into the microfluidic channel, and incubated with no flow at 37° C. for 2 h. LB (Luria Bertani) growth medium was then continuously flowed into the device at a rate of 10 μL/hr. As needed, this medium was supplemented with various concentrations of analog or antibiotic at specified times. In studies of biofilm inhibition, after 2 hours of cell incubation, the analog diluted in LB medium is flown into the microfluidic channel for 48 hours at 10 μL/hr. In studies of effects on pre-formed biofilms, LB is introduced over the cells at 10 μL/hr for a period of 36 to 48 hours to yield stable biofilms. Then, the analog or analog-antibiotic combination was introduced for an additional 36 to 48 hours.
(§2) Biofilms were stained in situ for microscopy. They were first treated with a Live/Dead bacterial labeling kit (Invitrogen #L7012) in which two labeling components were mixed in a 1:1 ratio to a final volume of 10 μL. The dye was introduced into the channel at 10 μL/hr, the same flow rate as during biofilm growth. This treatment was then followed by 10 μL/hr of a 100 μg/mL calcofluor (Fluorescence Brightener 28, Sigma #F3543) solution for labeling polysaccharides contained in the biofilm matrix. The dyes are fixed by flowing in 3% paraformaldehyde at the same flow rate.
(§3) Labeled samples are imaged using a confocal microscope (Zeiss LSM710). For unpatterned coverslips, Z-stacks were obtained at 7 points in each microfluidic channel, each stack was comprised of 150 slices. For patterned coverslips used while measuring the optical density of the biofilms, two stacks were obtained in each channel (i.e. one at each pinhole). The image stacks were analyzed using COMSTAT, which provides morphological characteristics. Average biofilm thickness and biomass were averaged over the image stacks obtained at each of these 7 data points in the microfluidic channel. Additionally, surface reconstructions of the biofilms were created using Imaris (Bitplane) to aid in visualization of the resulting structures.
(§4) The data corresponding to the change in optical density of the biofilms were obtained from the photodiodes using the standard methodologies. Data for each channel (the average of the response of the two photodiodes) was normalized with respect to the optical density at 48 hours; this method reflects that as of 48 hours, the biofilms have been grown under identical conditions although their optical density values may not be identical. Additionally, since the optical density data itself fluctuates as the biofilm grows, the data for each curve was fitted using a Churchill model (Churchill et al, 1972), represented by log N=[f1^−1+f2^−1]^−1 (1)

[2] = system: pre-formed P. aeruginosa biofilms (PAO1); experiment: Effects on pre-formed P. aeruginosa biofilms (microfluidic flow cell, COMSTAT, optical density); type: cell-based; conditions: gentamicin alone
Method: as §1, §2, §3, §4

V. harveyi = experiment: DPD analogs and representative bacterial species affected (Table 1); type: cell-based; design: key: x: DPD Analogs and representative bacterial species affected
E. coli = experiment: as above; type: cell-based; design: key: x: DPD Analogs and representative bacterial species affected
[3] = system: lsr expression in E. coli (lsr-lacZ reporter strains); experiment: QS response (lsr expression): AI-2 dependent β-galactosidase production, Miller assay; type: cell-based, Escherichia coli; conditions: for inhibition of AI-2-mediated lsr expression (β-galactosidase), in words: E. coli LW7 pLW11 (luxS−), 20 μM AI-2 (DPD) + 20 μM analog; for effect on native lsr expression (QS response): E. coli ZK126 pLW11 (luxS+), cells produce their own AI-2; for IC50: Escherichia coli
Method: (§5) The panel of C1-alkyl analogs was screened to identify QS modulators in the enteric bacteria E. coli and S. typhimurium. Transcription of the QS associated lsr operon, by using lsr-lacZ reporter strains (Table 2) which produce β-galactosidase in response to added AI-2 was monitored. In order to first establish if the analogs were agonists or antagonists in the QS circuit, the analogs were incubated with E. coli LW7 pLW11 and S. typhimurium MET715 (FIG. 19a-b) both of which are luxS^−. None of the analogs, except ethyl-DPD behaved as agonists for lsr expression. Previous studies investigating AI-2 antagonism in P. aeruginosa or in S. typhimurium were carried out using chemically synthesized AI-2 added to luxS^− cells. […] The same trends were obtained by adding a 1:1 ratio of enzymatically synthesized AI-2 and DPD analogs to the luxS^− strains E. coli LW7 pLW11 and S. typhimurium MET715 (FIG. 11a-b). None of the tested DPD analogs were bacteriocidal or bacteriostatic as the OD600 values of E. coli ZK126 pLW11 and S. typhimurium MET708 in the presence and absence of the analogs were similar (FIG. 10). Though the QS circuitry of the enteric organisms, E. coli and S. typhimurium are homologous they respond differently to the DPD analogs. The E. coli QS circuitry is susceptible to being silenced by a variety of DPD analogs of different shapes and sizes whereas in S. typhimurium, only a handful of DPD analogs could antagonize the action of AI-2. […] Isobutyl-DPD emerged as an effective and non-species-specific quencher; causing significant lsr expression knockdowns in both E. coli and S. typhimurium.
(§6) The QS response indicated by lsr gene expression was analyzed in pure culture studies by culturing E. coli LW7 pLW11, E. coli ZK126 pLW11 and S. typhimurium MET708, S. typhimurium MET715 overnight in LB medium supplemented with appropriate antibiotics as stated previously. These cells were then diluted into fresh LB medium (with antibiotics) and grown to an OD600 of 0.8-1.0 at 30° C., 250 rpm. Cells were then collected by centrifugation at 10,000×g for 10 minutes, and resuspended in 10 mM phosphate buffer. AI-2 (20 μM) and the respective analog (20 μM) were added to the E. coli or S. typhimurium suspension for 2 hours at 37° C. AI-2 dependent β-galactosidase production was quantified by the Miller assay.
(§7) The QS response indicated by lsr gene expression was analyzed in pure culture studies by culturing E. coli LW7 pLW11 and S. typhimurium MET715 overnight at 30° C. in LB medium supplemented with appropriate antibiotics as stated previously. These cells were then diluted into fresh LB medium (with antibiotics) and grown to an OD600 of 0.4-0.8 at 37° C., 250 rpm. Cells were then collected by centrifugation at 10,000×g for 10 min and resuspended in 10 mM phosphate buffer. AI-2 (20 μM) and the respective analog (20 μM) were added to the E. coli or S. typhimurium suspension for 2 h at 37° C. AI-2 dependent β-galactosidase production was quantified by the Miller assay.
(§8) The QS response indicated by lsr gene expression was analyzed in pure culture studies by culturing E. coli LW7 pLW11, E. coli ZK126 pLW11 and S. typhimurium MET708, S. typhimurium MET715 overnight in LB medium individually supplemented with appropriate antibiotics, as specified above. These cells were diluted into fresh LB medium (with antibiotics) and grown to an OD600 of 0.8-1.0 at 30° C., 250 rpm. Cells were collected by centrifugation at 10,000×g for 10 minutes, and resuspended in 10 mM phosphate buffer. AI-2 (20 μM) and the respective analog (20 μM) were added to the E. coli or S. typhimurium suspension for 2 hours at 37° C. AI-2 dependent β-galactosidase production was quantified by the Miller assay.

[4] = system: lsr expression in S. typhimurium (lsr-lacZ reporter strains); experiment: as above; type: cell-based, Salmonella typhimurium; conditions: for effect on AI-2-mediated lsr expression (β-galactosidase), in words: S. typhimurium MET715 (luxS−), 20 μM AI-2 (DPD) + 20 μM analog
Method: as §5, §6, §7, §8

LsrK = biological target: T1, LsrK (Escherichia coli, UniProt P77432); experiment: In vitro phosphorylation of analogs by LsrK (TLC, autoradiography); type: biochemical, E. coli; conditions: for phosphorylation by E. coli LsrK: incubation with LsrK in vitro for one hour (Example 6)
T1 construct: made in house; host or cells: E. coli BL21
T1 sequence (P77432 whole entry): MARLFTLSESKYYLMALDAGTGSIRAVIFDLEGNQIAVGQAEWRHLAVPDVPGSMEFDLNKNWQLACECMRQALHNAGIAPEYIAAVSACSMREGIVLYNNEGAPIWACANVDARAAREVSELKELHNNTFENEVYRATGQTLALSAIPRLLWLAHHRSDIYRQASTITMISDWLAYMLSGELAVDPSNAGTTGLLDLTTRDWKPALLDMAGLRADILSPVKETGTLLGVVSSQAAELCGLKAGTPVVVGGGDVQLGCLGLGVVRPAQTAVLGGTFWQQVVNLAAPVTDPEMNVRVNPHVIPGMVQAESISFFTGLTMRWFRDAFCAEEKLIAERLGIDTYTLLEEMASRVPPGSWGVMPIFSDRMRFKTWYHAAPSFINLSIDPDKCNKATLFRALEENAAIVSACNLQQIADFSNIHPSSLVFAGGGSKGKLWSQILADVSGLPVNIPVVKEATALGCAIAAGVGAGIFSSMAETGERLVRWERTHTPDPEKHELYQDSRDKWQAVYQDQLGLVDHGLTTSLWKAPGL
Method: LsrK was purified and from E. coli BL21 pET200-LsrK as described before. Phosphorylated analogs were synthesized by incubating 1 μM) LsrK with 40 μM ATP (Roche), […] of [γ-^32P] […] A 5 μL aliquot was then spotted onto a cellulose TLC plate (Selecto Scientific). The plate was developed using 0.8 M LiCl as the solvent, air dried and developed via autoradiography.
LsrK was purified from E. coli BL21 pET200-LsrK as described before. Phosphorylated analogs were synthesized by incubating (1 μM) LsrK with (40 μM) ATP (Roche), ([…]) of [P^32] […] An aliquot (2.5 μL) was then spotted onto a cellulose TLC plate (Selecto Scientific). The plate was developed using 0.8 M LiCl as the solvent, air dried and developed via autoradiography.

With gentamicin [reference compound] the “drop of biofilm biomass” value ([1]; gentamicin 5 μg/ml without AI-2 analog) was roughly 50%, the average biofilm biomass ([1]; gentamicin 5 μg/ml without AI-2 analog, LB only 8.5 μm^3/μm^2) was 3.5 μm^3/μm^2 and the average biofilm thickness ([1]; gentamicin 5 μg/ml without AI-2 analog, LB only 12 μm) was 10 μm. For the same compound, the “course of biofilm optical density after 48 h, in words” value ([1]; gentamicin alone, continuous optical density measurement) was “slowed the progress of biofilm maturation”, the biofilm reduction [2] was roughly 0% and the “course of biofilm optical density after 48 h, in words” value ([2]; continuous optical density measurement) was “slowed the progress of biofilm maturation”.
With `CCCCCC(=O)C(=O)[C@@H](O)CO` [Pentyl DPD] the “bacterial species affected: V. harveyi” value (V. harveyi) was “x” and the “bacterial species affected: E. coli” value (E. coli) was “x”.
`CCCCCC(=O)OCC(OC(=O)CCCCC)C(=O)C(=O)CC(C)C` (stereo not shown) [Compound 26, 6-methyl-3,4-dioxoheptane-1,2-diyl dihexanoate] was tested, and the “inhibition of AI-2-mediated lsr expression (β-galactosidase), in words” value (from here on “inhibition”) [3] was “abrogated”.
`CCCC(=O)C(=O)[C@@H](O)CO` [propyl-DPD] was tested, and the “effect on native lsr expression (QS response)” value (“effect on native lsr expression” for short) [3] was “significant knockdown”, the “bacterial species affected: V. harveyi” value (V. harveyi) was “x” and the “bacterial species affected: E. coli” value (E. coli) was “x”.
For `CCCC(=O)OCC(OC(=O)CCC)C(=O)C(=O)CC(C)C` (stereo not shown) [Compound 24, 6-methyl-3,4-dioxoheptane-1,2-diyl dibutyrate], the “inhibition” value [3] was “as effective QS quenchers as the unprotected isobutyl DPD”.
`O=C(C(=O)C1CCCC1)C(O)CO` (stereo not shown) [Cyclopentyl-DPD, Cyclopentyl DPD] was tested, and the “reduction in lsr promoter activity” value ([3]; E. coli LW7, 20 μM DPD + 20 uM analog) was “over 60%”, the “inhibition” value [3] was “inhibit lsr expression” and the IC50 ([3]; Example 6, read-out: IC50 (lsr expression in E. coli)) was 2400 nM. The IC50 ([3]; concentration reducing lsr expression (β-galactosidase production) to 50% in the presence of 20 μM exogenously added synthetic DPD, read-out: IC50 of analog (nM) to inhibit QS in E. coli) was 2440 nM, the “effect on AI-2-mediated lsr expression (β-galactosidase), in words” value [4] was “increased expression” and the “phosphorylation by E. coli LsrK” value (LsrK) was “significantly phosphorylated”. The “bacterial species affected: E. coli” value (E. coli) was “x”.
For deoxy-isobutyl-DPD, the “effect on native lsr expression” value [3] was “unable to silence the lsr operon”.
In the case of 2-methylpropyl-DPD, the “effect on native lsr expression” value [3] is reported as “substantial reduction”.
With `CC(=O)OCC(OC(C)=O)C(=O)C(=O)CC(C)C` (stereo not shown) [Compound 23, 6-methyl-3,4-dioxoheptane-1,2-diyl diacetate] the “inhibition” value [3] was “as effective QS quenchers as the unprotected isobutyl DPD”.
With `O=C(C(=O)C(O)CO)c1ccc([N+](=O)[O-])cc1` (stereo not shown) [Nitrophenyl-DPD, 4-nitrophenyl DPD] the “inhibition” value [3] was “no” and the “effect on AI-2-mediated lsr expression (β-galactosidase), in words” value [4] was “increased QS response”.
In the case of `O=C(C(=O)C(O)CO)c1ccc(F)cc1` (stereo not shown) [fluorophenyl, 4-fluorophenyl DPD], the “inhibition” value [3] is reported as “no”.
In the case of `CC(C)(C)CC(=O)C(=O)C(O)CO` (stereo not shown) [neopentyl-DPD], the “effect on native lsr expression” value [3] is reported as “substantial reduction”.
`CCCCC(=O)OCC(OC(=O)CCCC)C(=O)C(=O)CC(C)C` (stereo not shown) [Compound 25, 6-methyl-3,4-dioxoheptane-1,2-diyl dipentanoate] was tested, and the “inhibition” value [3] was “reduced”.
For CH2-cyclohexyl-DPD, the “inhibition” value [3] was “attenuated lsr expression in E. coli to a lesser extent”, the “phosphorylation by E. coli LsrK” value (LsrK) was “weakly phosphorylated” and the “phosphorylation by E. coli LsrK” value (LsrK; listed as CH2-cyclohexyl) was “not phosphorylated”.
In the case of `CC(=O)C(=O)C(O)CO` (stereo not shown) [AI-2, 4,5-dihydroxy-2,3-pentanedione, reference compound], the “more LacZ present than without AI-2” value ([4]; S. typhimurium MET715 (LuxS−), 20 μM AI-2 added) is reported as “about 30%”.
`O=C(C(=O)C1CC1)C(O)CO` (stereo not shown) [cyclopropyl-DPD] was tested, and the “effect on native lsr expression” value [3] was “neither an lsr agonist nor antagonist” and the “phosphorylation by LsrK” value (LsrK; incubation with LsrK and excess ATP for 2 hours (Example 1)) was “phosphorylated”.
For `CCCCC(=O)OCC(OC(=O)CCCC)C(=O)C(C)=O` (stereo not shown) [Compound 21, 3,4-dioxopentane-1,2-diyl dipentanoate], the “induction of lsr expression (β-galactosidase)” value ([4]; S. typhimurium MET715 (LuxS−), 20 μM compound, no AI-2 added) was “as effective as DPD”.
For `CCCCCCC(=O)C(=O)[C@@H](O)CO` [Hexyl DPD], the “bacterial species affected: V. harveyi” value (V. harveyi) was “x” and the “bacterial species affected: E. coli” value (E. coli) was “x”.
In the case of `O=C(C(=O)C1CCCCCC1)C(O)CO` (stereo not shown) [Cycloheptyl-DPD, Cycloheptyl DPD], the “inhibition” value [3] is reported as “nor did they affect LsrR-controlled transcription”, the “phosphorylation by E. coli LsrK” value (LsrK) is reported as “Neither Cycloheptyl-DPD nor the aromatic analogs were phosphorylated” and the “phosphorylation by E. coli LsrK” value (LsrK; listed as cycloheptyl) is reported as “not phosphorylated”.
